What was measured:
[1] = target: T1, Peroxisome proliferator-activated receptor alpha (Homo sapiens, UniProt Q07869)
T1 sequence (Q07869 whole entry): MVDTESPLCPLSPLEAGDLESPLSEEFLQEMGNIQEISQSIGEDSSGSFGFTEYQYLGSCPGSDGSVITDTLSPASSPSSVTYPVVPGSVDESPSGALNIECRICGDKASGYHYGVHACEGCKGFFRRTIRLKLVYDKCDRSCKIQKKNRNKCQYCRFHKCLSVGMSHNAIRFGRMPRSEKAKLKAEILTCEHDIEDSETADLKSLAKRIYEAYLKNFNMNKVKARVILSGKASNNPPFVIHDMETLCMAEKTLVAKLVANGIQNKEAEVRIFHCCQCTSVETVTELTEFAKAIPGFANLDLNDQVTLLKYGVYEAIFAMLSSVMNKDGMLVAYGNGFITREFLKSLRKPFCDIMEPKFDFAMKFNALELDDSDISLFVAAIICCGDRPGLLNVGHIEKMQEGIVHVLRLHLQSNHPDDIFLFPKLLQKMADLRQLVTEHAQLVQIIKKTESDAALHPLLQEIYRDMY
Description: Displacement of [3H]2-(4-(2-(3-(2,4-difluorophenyl)-1-heptylureido)ethyl)phenoxy)-2-methylbutanoic acid from human PPARalpha after 30 mins by SPA assay

[2] = target: T2, Peroxisome proliferator-activated receptor delta (Homo sapiens, UniProt Q03181); assay type: functional, cell-based, HepG2
T2 sequence (Q03181 whole entry): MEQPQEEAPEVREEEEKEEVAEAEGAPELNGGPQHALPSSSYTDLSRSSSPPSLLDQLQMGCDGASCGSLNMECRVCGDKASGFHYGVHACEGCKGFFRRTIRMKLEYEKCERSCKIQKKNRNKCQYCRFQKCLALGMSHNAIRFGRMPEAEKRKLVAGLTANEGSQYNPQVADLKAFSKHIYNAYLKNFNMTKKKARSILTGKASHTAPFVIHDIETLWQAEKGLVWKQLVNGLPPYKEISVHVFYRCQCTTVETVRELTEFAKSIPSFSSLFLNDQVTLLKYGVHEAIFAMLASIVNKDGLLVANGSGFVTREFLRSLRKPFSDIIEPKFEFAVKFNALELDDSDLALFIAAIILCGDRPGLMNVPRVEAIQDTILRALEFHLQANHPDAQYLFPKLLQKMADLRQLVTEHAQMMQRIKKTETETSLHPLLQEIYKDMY
Description: Agonist activity at human PPARdelta expressed in HepG2 cells after 16 hrs by luciferase reporter gene assay

[3] = target: T2, Peroxisome proliferator-activated receptor delta
Description: Displacement of [3H]2-(4-(3-(4-acetyl-3-hydroxy-2 propyl-phenoxy)propoxy)phenoxy)acetic acid from human PPARdelta after 30 mins by SPA assay

Compound | IC50 [1] | IC50 [2] | IC50 [3] | EC50 [2]
O=C(O)COc1ccc(SCc2ccc(OCc3cc(Cl)ccc3Cl)cc2)c2c1CCC2 | 4190 nM | – | 69 nM | 585 nM
O=C(O)COc1ccc(SCc2ccc(OCc3ccc(F)cc3)cc2)c2c1CCC2 | > 10000 nM | – | 191 nM | 13600 nM
O=C(O)COc1ccc(SCc2cc(F)ccc2OCc2ccc(C(F)(F)F)cc2)c2c1CCC2 | > 10000 nM | – | 1.7 nM | 70 nM
O=C(O)COc1ccc(SCc2ccc(OCc3ccc(Cl)cc3)cc2)c2c1CCC2 | 3910 nM | – | 89 nM | 933 nM
COc1ccc(COc2ccc(CSc3ccc(OCC(=O)O)c4c3CCC4)cc2)cc1 | 4950 nM | – | 120 nM | 1970 nM
O=C(O)COc1ccc(SCc2ccc(OCc3ccccc3)cc2)c2c1CCC2 | > 10000 nM | – | 125 nM | 2210 nM
O=C(O)COc1ccc(SCc2ccccc2OCc2ccc(C(F)(F)F)cc2)c2c1CCC2 | > 10000 nM | – | 10.4 nM | 230 nM
O=C(O)COc1ccc(SCc2ccc(F)cc2OCc2ccc(C(F)(F)F)cc2)c2c1CCC2 | 3110 nM | – | 62 nM | –
O=C(O)COc1ccc(SCc2c(F)cccc2OCc2ccc(C(F)(F)F)cc2)c2c1CCC2 | > 10000 nM | – | 286 nM | 2610 nM
CC(C)(C)c1ccc(COc2ccc(CSc3ccc(OCC(=O)O)c4c3CCC4)cc2)cc1 | 1540 nM | – | 148 nM | 267 nM
O=C(O)COc1ccc(SCc2ccc(OCc3ccc(F)cc3C(F)(F)F)cc2)c2c1CCC2 | 3480 nM | – | 356 nM | 1720 nM
O=C(O)COc1ccc(SCc2cccc(F)c2OCc2ccc(C(F)(F)F)cc2)c2c1CCC2 | 3670 nM | – | 111 nM | –

Molecules with a lower IC50 [1], results first:

IC50 [1] | IC50 [2] | IC50 [3] | EC50 [2] | Compound
1200 nM | – | – | – | O=C(O)COc1ccc(SCc2ccc(OCc3ccc(C(F)(F)F)cc3)cc2)c2c1CCC2
791 nM | – | – | – | O=C(O)COc1ccc(SCc2ccc(OCc3ccc(C(F)(F)F)cc3)cc2)c2c1CCCO2
672 nM | – | 76 nM | 530 nM | O=C(O)COc1ccc(SCc2ccc(OCc3ccc(OC(F)(F)F)cc3)cc2)c2c1CCC2
578 nM | – | 19 nM | 252 nM | Cc1cc(SCc2ccc(OCc3ccc(C(F)(F)F)cc3)cc2)ccc1OCC(=O)O
428 nM | > 10000 nM | 313 nM | – | Cc1cc(SCc2ccc(OCc3ccc(C(F)(F)F)cc3)cc2)c2c(c1OCC(=O)O)CCCO2
311 nM | > 10000 nM | 586 nM | – | Cc1cc(SCc2ccc(OCc3ccc(C(F)(F)F)cc3)cc2)c2c(c1OCC(=O)O)CCC2
128 nM | – | 20 nM | 374 nM | Cc1cc(SCc2ccc(OCc3ccc(C(F)(F)F)cc3)cc2)c(Cl)cc1OCC(=O)O
4.7 nM | – | – | – | COc1cc(OCC(=O)O)c(C)cc1SCc1ccc(OCc2ccc(C(F)(F)F)cc2)cc1
